Test results reported in ChEMBL document CHEMBL1156372, “New halogenated marine prostanoids with cytotoxic activity from the Okinawan soft coral Clavularia viridis” (J Nat Prod, 2001).
Values after ≈ are worked out from the molar mass of the structure shown.

Key:
Assay type in all cases: functional, cell-based
MOLT-4 = assay: Cytotoxicity against human MOLT4 cells by MTT assay
IMR-90 = assay: Cytotoxicity against human IMR90 cells by MTT assay
DLD-1 = assay: Cytotoxicity against human DLD1 cells by MTT assay

**Q.** How did the IC50 (MOLT-4) turn out when CCCCC/C=C\C[C@@]1(O)C=C(I)C(=O)[C@@H]1[C@H](/C=C\CCCC(=O)OC)OC(C)=O was run?
**A.** The IC50 was 0.52 µg/mL (≈ 0.977 µM).

**Q.** And the IC50 (IMR-90)?
**A.** The IC50 was 4.5 µg/mL (≈ 8.45 µM).

**Q.** What about the IC50 (DLD-1) of the same compound?
**A.** The IC50 was 0.6 µg/mL (≈ 1.13 µM).
